pKi: −log10 of the molar value. Active and inactive are the calls of the source. The calls are words filed in the database; no cut-off is given here. Peptide text beside a SMILES is read from it.
Legend:
[1] = Stability in human plasma assessed as half life by ESI-LC/MS; format: ADME, cell-free
[2] = molecular target: T1, Disks large homolog 4 (Homo sapiens, UniProt P78352); assay: Inhibition of PSD-95 PDZ2 domain by competitive fluorescence polarization assay
Target sequence in this assay (P78352 whole entry, the tested form may be a part): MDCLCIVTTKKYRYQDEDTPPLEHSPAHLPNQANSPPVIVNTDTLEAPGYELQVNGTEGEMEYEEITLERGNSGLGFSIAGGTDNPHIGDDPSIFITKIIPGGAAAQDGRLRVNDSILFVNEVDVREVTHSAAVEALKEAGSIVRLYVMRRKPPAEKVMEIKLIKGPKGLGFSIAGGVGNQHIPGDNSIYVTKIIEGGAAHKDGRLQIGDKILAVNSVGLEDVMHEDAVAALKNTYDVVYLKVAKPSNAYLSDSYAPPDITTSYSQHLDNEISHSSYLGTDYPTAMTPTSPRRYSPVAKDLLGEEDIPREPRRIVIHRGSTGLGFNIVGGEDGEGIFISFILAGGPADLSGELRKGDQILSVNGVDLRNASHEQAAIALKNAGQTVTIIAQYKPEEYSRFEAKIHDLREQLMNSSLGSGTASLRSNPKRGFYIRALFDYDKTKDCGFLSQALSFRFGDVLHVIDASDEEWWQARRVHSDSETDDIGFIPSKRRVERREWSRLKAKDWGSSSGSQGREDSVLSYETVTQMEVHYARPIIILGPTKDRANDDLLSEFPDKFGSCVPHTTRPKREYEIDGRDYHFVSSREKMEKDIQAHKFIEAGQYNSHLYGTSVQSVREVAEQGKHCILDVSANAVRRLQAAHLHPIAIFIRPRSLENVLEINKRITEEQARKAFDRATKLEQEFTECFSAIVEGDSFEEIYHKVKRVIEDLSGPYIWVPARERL

[3] = molecular target: T1, Disks large homolog 4; assay: Inhibition of PSD-95 PDZ3 domain by competitive fluorescence polarization assay; details: for pKi: read-out: Ki
Target sequence in this assay (P78352 whole entry, the tested form may be a part): as above

[4] = molecular target: T1, Disks large homolog 4; assay: Inhibition of PSD-95 PDZ2 domain-GluN2B interaction expressed in COS7 cells transfected with pGFP2-PDZ2 and pRluc-N2B at 500 uM by BRET assay; format: cell-based; details: COS-7
Target sequence in this assay (P78352 whole entry, looked up, the tested form may be a part): as the sequence (P78352 whole entry, the tested form may be a part) above

[5] = molecular target: T1, Disks large homolog 4; assay: Inhibition of PSD-95 PDZ2 domain-GluN2B interaction expressed in COS7 cells transfected with pGFP2-PDZ2 and pRluc-N2B at 50 to 1000 uM by BRET assay; format: cell-based; details: COS-7
Target sequence in this assay (P78352 whole entry, looked up, the tested form may be a part): as the sequence (P78352 whole entry, the tested form may be a part) above

[6] = molecular target: T1, Disks large homolog 4; assay: Inhibition of PSD-95 PDZ2 domain-GluN2B interaction expressed in COS7 cells transfected with pGFP2-PDZ2 and pRluc-N2B at 100 uM by BRET assay; format: cell-based; details: COS-7
Target sequence in this assay (P78352 whole entry, looked up, the tested form may be a part): as the sequence (P78352 whole entry, the tested form may be a part) above

Row | Molecule | pKi [2] | pKi [3] | inhibition [4] | also measured
1 | CN[C@@H](CCC(=O)O)C(=O)N[C@H](C(=S)N[C@@H](C)C(=O)N[C@H](C(=O)O)C(C)C)[C@@H](C)O | 3.66 |  |  | half-life [1]: 9 h
2 | CC(C)[C@H](NC(=O)[C@H](C)NC(=O)[C@@H](NC(=O)[C@H](CCC(=O)O)NCCC1CC2CCC1C2)[C@@H](C)O)C(=O)O (some centres undefined) | 5.82 | 4.85 |  | 
3 | CC(C)[C@H](NC(=O)[C@H](C)NC(=O)[C@@H](NC(=O)[C@H](CCC(=O)O)NCCCc1ccc(F)c(F)c1F)[C@@H](C)O)C(=O)O | 5.38 | 4.36 |  | 
4 | CC(C)[C@H](NC(=O)[C@H](C)NC(=O)[C@@H](NC(=O)[C@H](CCC(=O)O)NCCc1ccc(F)c(F)c1F)[C@@H](C)O)C(=O)O | 5.74 | 5.06 |  | 
5 | CC(C)[C@H](NC(=O)[C@H](C)NC(=O)[C@@H](NC(=O)[C@H](CCC(=O)O)NCCc1ccc(Cl)c(Cl)c1)[C@@H](C)O)C(=O)O |  |  | Active | half-life [1]: 1.38 h; inhibition [5]: Dose-dependent effect
6 | CN[C@@H](CCC(=O)O)C(=O)N[C@H](C(=O)N[C@@H](C)C(=O)N[C@H](C(=O)O)C(C)C)[C@@H](C)O | 5.02 |  |  | half-life [1]: 1.88 h
7 | CC(C)[C@H](NC(=O)[C@H](C)NC(=O)[C@@H](NC(=O)[C@H](C)N)[C@@H](C)O)C(=O)O (H-ATAV-OH) |  | < 3.40 | inactive | 
8 | CC(C)[C@H](NC(=O)[C@H](C)NC(=O)[C@@H](NC(=O)[C@H](CCC(=O)O)NCCC1CCCCCC1)[C@@H](C)O)C(=O)O | 5.92 | 5.03 |  | 
9 | CC(C)[C@H](NC(=O)[C@H](C)NC(=O)[C@@H](NC(=O)[C@H](CCC(=O)O)NCCc1ccc2ccc3cccc4ccc1c2c34)[C@@H](C)O)C(=O)O | 4.80 | 4.29 |  | 
10 | CN[C@@H](CCC(=O)O)C(=S)N[C@H](C(=O)N[C@@H](C)C(=O)N[C@H](C(=O)O)C(C)C)[C@@H](C)O | 4.49 |  |  | half-life [1]: > 91.7 h
11 | CC(C)[C@H](NC(=O)[C@H](C)NC(=O)[C@@H](NC(=O)[C@H](CCC(=O)O)NCC1CCCCCC1)[C@@H](C)O)C(=O)O | 5.85 | 4.80 |  | 
12 | CC(C)[C@H](NC(=O)[C@H](C)NC(=O)[C@@H](NC(=O)[C@H](CCC(=O)O)NCC12CC3CC(CC(C3)C1)C2)[C@@H](C)O)C(=O)O | 5.68 | 5.17 |  | 
13 | CC(C)[C@H](NC(=O)[C@H](C)NC(=O)[C@@H](NC(=O)[C@H](CCC(=O)O)NCCCc1c2ccccc2cc2ccccc12)[C@@H](C)O)C(=O)O | 5.05 | 4.02 |  | 
14 | CC(C)[C@H](NC(=O)[C@H](CC(=O)O)NC(=O)[C@@H](NC(=O)[C@H](CCC(=O)O)NCCc1ccc2ccccc2c1)[C@@H](C)O)C(=O)O | 5.74 | 3.68 | inactive | 
15 | CC(C)[C@H](NC(=O)[C@H](C)NC(=O)[C@@H](NC(=O)[C@@H](N)CCC(=O)O)[C@@H](C)O)C(=O)O |  |  | inactive | 
16 | CC(C)[C@H](NC(=O)[C@H](C)NC(=O)[C@@H](NC(=O)[C@H](CCC(=O)O)NCCC1CCCCC1)[C@@H](C)O)C(=O)O | 6.20 |  | Active | half-life [1]: 0.483 h; inhibition [5]: Dose-dependent effect
17 | CC(C)[C@H](NC(=O)[C@H](C)NC(=O)[C@@H](NC(=O)[C@H](CCC(=O)O)NCC1CC2CCC1C2)[C@@H](C)O)C(=O)O (some centres undefined) | 5.89 | 4.70 |  | 
18 | CC(C)[C@H](NC(=O)[C@H](C)NC(=O)[C@@H](NC(=O)[C@H](CCC(=O)O)NCCCc1ccc2ccccc2c1)[C@@H](C)O)C(=O)O | 5.30 | 4.28 |  | 

Row | Molecule | pKi [2] | pKi [3] | inhibition [4] | also measured
19 | CC(C)[C@H](NC(=O)[C@H](C)NC(=O)[C@@H](NC(=O)[C@H](CCC(=O)O)NCCCCc1ccc2ccc3cccc4ccc1c2c34)[C@@H](C)O)C(=O)O | 4.48 | 4.12 |  | 
20 | CC(C)[C@H](NC(=O)[C@H](CC(=O)O)NC(=O)[C@@H](NC(=O)[C@H](CCC(=O)O)NCCc1ccc(Cl)c(Cl)c1)[C@@H](C)O)C(=O)O | 5.92 | 3.89 | inactive | 
21 | CC(C)[C@H](NC(=O)[C@H](C)NC(=O)[C@@H](NC(=O)[C@@H](N)CCC(N)=O)[C@@H](C)O)C(=O)O (H-QTAV-OH) | 3.96 | < 3.40 |  | 
22 | CC(C)[C@H](NC(=O)[C@H](C)NC(=O)[C@@H](NC(=O)[C@H](CCC(=O)O)NCCc1ccc2ccccc2c1)[C@@H](C)O)C(=O)O |  |  | Active | half-life [1]: 1.53 h; inhibition [5]: Dose-dependent effect
23 | CC(C)[C@H](NC(=O)[C@H](CC(=O)O)NC(=O)[C@@H](NC(=O)[C@H](C)NCCC1CCCCC1)[C@@H](C)O)C(=O)O |  | < 3.40 |  | 
24 | CC(C)[C@H](NC(=O)[C@H](CC(=O)O)NC(=O)[C@@H](NC(=O)[C@H](CCC(N)=O)NCCC1CCCCC1)[C@@H](C)O)C(=O)O |  |  |  | Ki [3]: Not Active
25 | CN[C@@H](CCC(=O)O)C(=O)N[C@H](C(=O)N[C@@H](C)C(=S)N[C@H](C(=O)O)C(C)C)[C@@H](C)O | 4.97 |  |  | half-life [1]: > 91.7 h
26 | C[C@H](NC(=O)[C@H](C)NC(=O)[C@H](C)NC(=O)[C@H](CCC(=O)O)NCCCc1ccc(Cl)c(Cl)c1)C(=O)O |  |  |  | inhibition [5]: inactive
27 | CC(C)[C@H](NC(=O)[C@H](C)NC(=O)[C@@H](NC(=O)[C@H](C)NCCc1ccc(Cl)c(Cl)c1)[C@@H](C)O)C(=O)O | 4.89 | 4.19 |  | 
28 | CC(C)[C@H](NC(=O)[C@H](CC(=O)O)NC(=O)[C@@H](NC(=O)[C@@H](N)CCC(N)=O)[C@@H](C)O)C(=O)O |  |  |  | Ki [3]: Not Active
29 | CC(C)[C@H](NC(=S)[C@H](C)NC(=O)[C@@H](NC(=O)[C@H](CCC(=O)O)NCCc1ccc(Cl)c(Cl)c1)[C@@H](C)O)C(=O)O | 6.00 | 5.08 | Active | half-life [1]: > 117 h; inhibition [5]: Dose-dependent effect
30 | CC(C)[C@H](NC(=S)[C@H](C)NC(=O)[C@@H](NC(=O)[C@H](CCC(=O)O)NCCC1CCCCC1)[C@@H](C)O)C(=O)O | 6.20 | 4.96 | Active | half-life [1]: > 117 h; inhibition [5]: Active
31 | CC(C)[C@H](NC(=O)[C@H](CC(=O)O)NC(=O)[C@@H](NC(=O)[C@@H](N)CCC(=O)O)[C@@H](C)O)C(=O)O (H-ETDV-OH) |  |  | inactive | 
32 | H-RRRRRRRRKLSSIESDV-OH |  |  |  | inhibition [6]: Active
33 | CC(C)[C@H](NC(=S)[C@H](C)NC(=O)[C@@H](NC(=O)[C@H](CCC(=O)O)NCCc1ccc2ccccc2c1)[C@@H](C)O)C(=O)O | 5.96 | 4.96 | Active | half-life [1]: > 117 h; inhibition [5]: Dose-dependent effect
34 | CC(C)[C@H](NC(=O)[C@H](CC(=O)O)NC(=O)[C@@H](NC(=O)[C@H](C)N)[C@@H](C)O)C(=O)O (H-ATDV-OH) |  |  |  | Ki [3]: Not Active
35 | CC(C)[C@H](NC(=O)[C@H](CC(=O)O)NC(=O)[C@@H](NC(=O)[C@H](CCC(=O)O)NCCC1CCCCC1)[C@@H](C)O)C(=O)O |  |  | inactive | Ki [3]: Not Active
36 | CC(C)[C@H](NC(=O)[C@H](C)NC(=O)[C@@H](NC(=O)[C@H](C)NCCc1ccc2ccccc2c1)[C@@H](C)O)C(=O)O | 4.25 | 3.55 |  | 
